Assay results: patent US7341850B2, “Human LXRα variants” (Wyeth, priority 2003, dated 2008)

B1: LXRα-64: human LXRα splice variant with an extra 64 amino acids in its ligand binding domain (SEQ ID NO:4) (protein, listed as Homo sapiens)
chain: MSLWLGAPVPDIPPDSAVELWKPGAQDASSQAQGGSSCILREEARMPHSAGGTAGVGLEAAEPTALLTRAEPPSEPTEIRPQKRKKGPAPKMLGNELCSVCGDKASGFHYNVLSCEGCKGFFRRSVIKGAHYICHSGGHCPMDTYMRRKCQECRLRKCRQAGMREECVLSEEQIRLKKLKRQEEEQAHATSLPPRRSSPPQILPQLSPEQLGMIEKLVAAQQQCNRRSFSDRLRVTPWPMAPDPHSREARQQRFAHFTELAIVSVQEIVDFAKQLPGFLQLSREDQIALLKTSAIEVAGEGQGMKGEAEWDYLWEGPPDIELGEPNLLGSRDEENRPPWKRPCSKTSPPSPRLRFAACVQVMLLETSRRYNPGSESITFLKDFSYNREDFAKAGLQVEFINPIFEFSRAMNELQLNDAEFALLIAISIFSADRPNVQDQLQVERLQHTYVEALHAYVSIHHPHDRLMFPRMLMKLVSLRTLSSVHSEQVFALRLQDKKLPPLLSEIWDVHE

Key:
LXRα-64 mRNA = assay: Regulation of LXRα-64 mRNA expression in differentiated THP-1 cells (real-time RT-PCR); type: cell-based, human; details: THP-1 cells differentiated with 150 nM phorbol ester for 3 days; 10 μM T0901317, 10 μM GW 3965, 10 μM Ciglitazone or 1 μM 9RA; vs vehicle; FIG. 8A
Procedure: Experiments were performed to determine whether agonists of wild type LXRα could also regulate the expression of LXRα variants. In these experiments, THP-1 cells were obtained from the American Type Culture Collection (ATCC) and cultured in RPMI medium containing 10% fetal bovine serum (FBS). For gene expression analysis in differentiated THP-1 cells, the THP1 cells were incubated in RPMI medium supplemented with 10% lipoprotein-deficient serum (LPDS) (Intracel Corp, Rockville, Md.) and treated with 150 nM phorbol ester for 3 days followed by treatment with LXR, RXR, or Peroxisome Proliferator-activated Receptor γ (PPARγ) agonist compounds, specifically with vehicle only (control), 10 μM T0901317, 10 μM GW 3965, 10 μM Ciglitazone, or 1 μM 9RA.

LXRα-42 mRNA = assay: Regulation of LXRα-42 mRNA expression in differentiated THP-1 cells (real-time RT-PCR); type: cell-based, human; details: THP-1 cells differentiated with 150 nM phorbol ester for 3 days; 10 μM T0901317, 10 μM GW 3965, 10 μM Ciglitazone or 1 μM 9RA; vs vehicle; FIG. 8B
Procedure: Each amplification mixture (50 μL) contained 50 ng of cDNA, 400 nM forward primer (SEQ ID NO:11), 400 nM reverse primer (SEQ ID NO:12), 200 nM dual-labeled fluorogenic probe (SEQ ID NO:13) (Applied Biosystems), 5.5 mM MgCl2, and 1.25 units Gold Taq (Applied Biosystems). The primers amplify a portion of the LXRα sequences that is about 80 nucleotides in length. The PCR thermocycling parameters were 95° C. for 10 minutes, and 40 cycles at 95° C. for 15 seconds, and 60° C. for 1 minute. Together with the samples and no-template controls, a serially diluted cDNA standard was analyzed in parallel. All samples were analyzed for human glyceraldehyde-3-phosphate dehydrogenase (GAPDH) expression in parallel in the same run using probe and primers from predeveloped assays for GAPDH (Applied Biosystems). All of the target gene expression was normalized to the expression of GAPDH. Quantitative analysis was performed using the threshold procedure, following the manufacturer's protocol (Perkin-Elmer), and relative amounts were calculated from the standard curve.
Experiments were performed to determine whether agonists of wild type LXRα could also regulate the expression of LXRα variants. In these experiments, THP-1 cells were obtained from the American Type Culture Collection (ATCC) and cultured in RPMI medium containing 10% fetal bovine serum (FBS). For gene expression analysis in differentiated THP-1 cells, the THP1 cells were incubated in RPMI medium supplemented with 10% lipoprotein-deficient serum (LPDS) (Intracel Corp, Rockville, Md.) and treated with 150 nM phorbol ester for 3 days followed by treatment with LXR, RXR, or Peroxisome Proliferator-activated Receptor γ (PPARγ) agonist compounds, specifically with vehicle only (control), 10 μM T0901317, 10 μM GW 3965, 10 μM Ciglitazone, or 1 μM 9RA. The primers and TaqMan probe for the real-time RT-PCR was described as in Example 4.

[1] = test system: pGL3-LXRα-Luc reporter (LXR response element of LXRα promoter); assay: LXRα promoter (LXRE) luciferase reporter gene assay in transfected HEK 293 cells; type: cell-based, human; details: variant co-transfected with hRXRα and reporter, 10 μM T0901317, 24 hours, compared with co-transfected native LXRα, FIG. 9
From the text: Human LXRα promoter (SEQ ID NO:14) was amplified by PCR using information from the published LXRα genomic structure and sequence (GenBank accession no. AC090589. A fragment spanning from -2660 to -2363 (relative to the transcription start site from exon 1) of LXRα promoter which contains the LXR response element ([NT] ID NO:20) ([…] et al. 2001, Mol. Cell. Biol. 21, 7558-7568 and Whitney et al., 2001, J. Biol. Chem. 276, 43509-43515) of LXRα was subcloned into pGL3 basic plasmid to create pGL-3-LXRα-Luc. The GenBank accession number of the LXRα “native” sequence used as a reference for the experiments and analysis disclosed herein is Genbank accession number for human LXRα is BC008819. Coding regions of human LXRα, and RXRα (GenBank accession number BC007925) were amplified by RT-PCR according to the sequences in GenBank and subcloned into pCMV/myc/nuc expression vectors (Invitrogen, Carlsbad, Calif.). The new LXRα-[…] coding region was subcloned into pCMV/myc/nuc expression vectors. HEK 293 cells were grown in Dulbecco's modified Eagle's medium (DMEM) containing 10% FBS. Transfections were performed in triplicate in 24 well plates using Lipofectamine 2000 (Invitrogen). […] The cells were harvested, analyzed, and the extracts were assayed for luciferase and β-galactosidase activity in a microplate luminometer/photometer reader (Lucy-1; Anthos, Salzburg, Austria). […]

[2] = test system: SREBP-c1 (an LXR target gene); assay: SREBP-1C expression in transfected HEK 293 cells (real-time quantitative PCR); type: cell-based; details: cotransfected with human RXRα, TO901317 and/or 9RA, 48 hours, compared to wild type LXRα with RXRα or empty vector with RXRα, FIG. 11
Procedure: (§1) In these experiments, coding regions of human LXRα, RXRα, and the LXRα variant (LXRα-64) were amplified by RT-PCR. The PCR products were subcloned into pCMV/myc/nuc expression vectors (Invitrogen, Carlsbad, Calif.) and used in the experiments described infra.
(§2) Expression experiments were conducted in HEK 293 cells that were propagated in Dulbecco's modified Eagle's medium (DMEM) containing 10% FBS. The cultured cells were transfected with either the expression vector containing a sequence encoding LXRα (wild type) or an expression vector encoding LXRα-64. All samples were co-transfected with an expression vector encoding an RXRα sequence. Transfections were performed in triplicate in 24 well plates using the Lipofectamine 2000 (Invitrogen, Carlsbad, Calif.). Each well was transfected with 200 ng of the LXRα expression vector (LXRα), the LXRα-64 expression vector (L64), or control plasmid (pCMV) along with 200 ng of human RXRα expression vector (RXRα). Additions to each well were adjusted to contain constant amounts of DNA and of pCMV expression vector. […] The levels of gene expression were determined with Real-time quantitative PCR assays using an Applied Biosystems 7700 sequence detector.

ABCA1 = ABCA1 expression in transfected HEK 293 cells (real-time quantitative PCR); type: cell-based, human; details: cotransfected with RXRα, FIG. 12
Procedure: as §1, §2

Row | Molecule | expression of LXRα-64 mRNA (LXRα-64 mRNA) | expression of LXRα-42 mRNA (LXRα-42 mRNA) | LXR ligand-dependent activation of reporter gene [1] | basal, LXR ligand-dependent, and LXR+RXR ligand-dependent induction of SREBP-c1 expression [2] | LXR as well as LXR+RXR-ligand dependent induction of ABCA1 expression (ABCA1; TO901317 and/or 9RA, 48 hours, compared to native LXRα and RXRα or empty vector with RXRα) | basal expression of ABCA1 (ABCA1; no ligand)
1 | O=S(=O)(c1ccccc1)N(CC(F)(F)F)c1ccc(C(O)(C(F)(F)F)C(F)(F)F)cc1 [T0901317, N-(2,2,2,-trifluoro-ethyl)-n-[4-(2,2,2,-trifluoro-1-hydroxy-1-trifluoromethyl-ethyl)-phenyl]-benzenesulfonamide] | increased | increased |  |  |  | 
2 | O=C(O)Cc1cccc(OCCCN(Cc2cccc(C(F)(F)F)c2Cl)CC(c2ccccc2)c2ccccc2)c1 [GW3965, 3-(3-(2-chloro-3-trifluoromethylbenzyl-2,2-diphenylethylamino)propoxy)phenylacetic acid] | increased | increased |  |  |  | 
3 | CC1=C(/C=C/C(C)=C\C=C\C(C)=C\C(=O)O)C(C)(C)CCC1 [9-cis retinoic acid] | increased | increased |  |  |  | 
4 | B1 |  |  | sharply decreased | sharply decreased | less | not affected
